Source: patent US6057371A, “Sigma receptor ligands and the use thereof” (Virginia Commonwealth University, priority 1992, dated 2000)
pIC50, pKi: −log10 of the molar value. Read-outs that look alike come from different tables or passages of the source.

Columns and labels:
Parameters in all cases: species or system guinea pig
[1] = target: T1, sigma-1 binding site (Cavia porcellus, UniProt Q60492); assay: biochemical; conditions: for sigma-2/sigma-1 selectivity: Example 8; for pIC50: Table 16, read-out: Sigma-1 IC50
T1 construct: Guinea pig whole membrane preparations (P2 microsomal fraction); from tissue; host or cells: guinea pig membranes (P2 microsomal fraction), as described by Weber et al; brain inferred from the sister test b489
Description: [^3 H]DTG was purchased from DuPont/NEN.
The radioactivity on the filters was determined by scintillation spectrometry at an efficiency of about 50% using Cytoscint (ICN) scintillation fluid.

[2] = target: T2, sigma-2 binding site (Cavia porcellus, UniProt H0V073); assay: biochemical
T2 construct: Guinea pig whole membrane preparations (P2 microsomal fraction); from tissue; host or cells: guinea pig membranes (P2 microsomal fraction), as described by Weber et al; brain inferred from the sister test b489
T2 sequence (H0V073 1-176): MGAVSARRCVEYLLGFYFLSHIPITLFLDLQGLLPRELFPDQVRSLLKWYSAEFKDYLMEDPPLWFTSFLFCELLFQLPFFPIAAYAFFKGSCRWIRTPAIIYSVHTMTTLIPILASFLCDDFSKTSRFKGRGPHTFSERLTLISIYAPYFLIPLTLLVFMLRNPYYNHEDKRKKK
Description: For the standard equilibrium assay, the mixtures were incubated for 30 min. at room temperature, then filtered and the radioactivity determined as described above.

[3] = target: sigma receptor; assay: Sigma receptor binding, [^3 H]DTG, brain membranes (both sigma-1 and sigma-2 sites); conditions: for IC50: Table 6, [^3 H]DTG
Description: Sigma receptor binding assays using guinea pig brain membrane homogenates and the radioligand [^3 H]DTG were conducted as described by Weber et al.. […] Briefly, frozen whole guinea-pig brains (Biotrol, Indianapolis, Ind.) were homogenized in 10 volumes (w/v) of ice-cold 320 mM sucrose using a Brinkman polytron. The homogenate was centrifuged at 1,000× g for 20 minutes at 4° C. The supernatant was centrifuged at 20,000× g for 20 minutes at 4° C. The resulting pellet was resuspended in 10 initial volumes of 50 mM Tris/HCl buffer at pH 7.4 and centrifuged at 20,000× g for 20 minutes at 4° C. The resulting pellet was resuspended in 5 initial volumes ice-cold 50 mM Tris/Hcl […], and the final volume was adjusted to yield a protein concentration of 3 mg/ml. Aliquots of 20-ml were stored at -70° C. until used, with no detectable loss of binding.
The protein concentration in the 1-ml final incubation volume was 800 ug/ml, corresponding to 32 mg of brain tissue (original wet weight) and to a tissue concentration within the linear range for specific binding. […] Incubations were terminated after 90 minutes at room temperature by addition of 4 ml of ice-cold 50 mM Tris/HCl (pH 7.4) and rapid filtration of the membrane suspension through Whatman GF/B glass-fiber filters under vacuum, using a 48-well cell harvester (Brandel). The filters were washed 2 times with 4 ml of 50 mM Tris/HCl (pH 7.4). Each filter was suspended in 10 ml Cytoscint (ICI), and radioactivity was measured by liquid scintillation spectrometry at a counting efficiency of approximately 50%. IC50 values were determined by non-linear regression analyis.
Further sigma receptor binding assays against [^3 H]DTG and 5HT-1A binding assays were conducted according to the procedure outlined in the previous examples.
Radioligand Binding. […] Briefly, membranes (P2 microsomal fraction) were diluted 1:3 with 50 mM Tris HCl (pH 7.4) and 0.4 mL was combined with 50 μL [^3 H]DTG (1-2 nM final concentration) and 50 μL of competing drug or buffer. After 90 min at room temperature, incubation was terminated by rapid filtration under vacuum through Whatman GF/B glass fiber filters using a Brandel 48-well cell harvester. Filters were washed three times with 5 mL of cold Tris HCl buffer and each filter was suspended in 5 mL of Cytoscint (ICN Biomedical). Radioactivity was measured by liquid scintillation spectrometry at a counting efficiency of 50%.

[4] = SIGMA-1 KI vs. 3H-PENTAZOCINE MEAN
[5] = SIGMA-2 KI vs. 3H-DTG + PENTAZOCINE MEAN
[6] = Table 10, read-out: SIGMA-2 KI vs. 3H-DTG + PENTAZOCINE MEAN
[7] = Table 10, read-out: SIGMA-1 KI vs. 3H-PENTAZOCINE MEAN
[8] = less than about 0.1, see Table 10
[9] = running text, Examples 5 and 6, read-out: sigma receptor Ki

T1 sequence (Q60492 whole entry): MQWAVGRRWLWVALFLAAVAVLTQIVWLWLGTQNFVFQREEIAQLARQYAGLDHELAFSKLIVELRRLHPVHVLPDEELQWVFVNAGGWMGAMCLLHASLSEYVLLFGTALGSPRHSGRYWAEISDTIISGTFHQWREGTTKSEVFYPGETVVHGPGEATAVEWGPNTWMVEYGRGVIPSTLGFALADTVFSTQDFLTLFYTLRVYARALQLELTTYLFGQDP

Structure (SMILES): CCCN1CCC[C@H](c2cccc(O)c2)C1 [(+)3-PPP, reference compound]
- pKi [1, 4]: 7.32
- S1/S2 Ratio ([1]; Table 11, sigma-1/sigma-2): 0.097
- pKi [2, 5]: 6.31

Structure (SMILES): CC(C)(C)[C@]1(O)CCN2C[C@H]3c4ccccc4CCc4cccc(c43)[C@@H]2C1 [(+)Butaclamol, reference compound]
- pKi [2, 5]: 5.85

Structure (SMILES): CCCN1CCC[C@@H](c2cccc(O)c2)C1 [(-)3-PPP, reference compound]
- pKi [1, 4]: 6.51
- S1/S2 Ratio ([1]; Table 11, sigma-1/sigma-2): 0.248
- pKi [2, 5]: 5.90

Structure (SMILES): CC(C)(C)[C@@]1(O)CCN2C[C@@H]3c4ccccc4CCc4cccc(c43)[C@H]2C1 [(-)Butaclamol, reference compound]
- pKi [2, 5]: 5.47

Structure (SMILES): C=CCN1CC[C@@]2(C)c3cc(O)ccc3C[C@@H]1[C@@H]2C [(-)SKF 10047, reference compound]
- pKi [2, 5]: 5.04

Structure (SMILES): OC(CCCN1CCN(c2ncc(F)cn2)CC1)c1ccc(F)cc1 (centres unmarked) [BMY-14802, reference compound]
- pKi [2, 6]: 6.88

Structure (SMILES): CN(C)CCCN1c2ccccc2Sc2ccc(Cl)cc21 [Chlorpromazine, reference compound]
- pKi [1, 4]: 6.47
- S1/S2 Ratio ([1]; Table 11, sigma-1/sigma-2): 0.471
- pKi [2, 5]: 6.15

Structure (SMILES): c1ccc2cc(N3CCNCC3)ccc2c1 [Compound 60, N-(2-Naphthyl)piperazine]
- pKi [1, 7]: 6.66
- pKi [2, 6]: 5.25

Structure (SMILES): CN(CCCc1ccc2ccccc2c1)CCCc1ccc2ccccc2c1 [Compound 74]
- IC50 [3]: 81.9 nM
- pKi [1, 7]: 7.52
- S1/S2 Ratio ([1]; Table 10, sigma-1/sigma-2): 0.065
- IC50 ratio of sigma-1/sigma-2 (sigma-1 selective compounds) [1, 8]: less than 0.1
- pKi [2, 6]: 6.34

Structure (SMILES): O=C(c1ccccc1)N1CCN(CCCCc2ccccc2)CC1 [Compound 80, N-4(4-phenylbutyl)-N'-benzoylpiperazine]
- pKi [1, 7]: 7.14
- pKi [2, 6]: 6.02

Structure (SMILES): c1ccc(CCCNCCc2ccccc2)cc1 [Compound 87, N-(3-phenylpropyl)phenethylamine]
- IC50 [3]: 21.8 nM
- pKi ([3]; Table 7, Phenyl-(CH2)x -NH--(CH2)y -Phenyl, read-out: Ki): 7.72
- pKi [3, 9]: 7.72
- pKi [1, 7]: 7.95
- IC50 ([1]; Table 14, read-out: IC50 (nM) at sigma-1): 11.3 nM
- pIC50 ([2]; Example 9, read-out: sigma-2 IC50): 7.05
- pKi [2, 6]: 7.05

Structure (SMILES): CCC(Cc1ccccc1)NCCCCc1ccccc1 (centres unmarked) [Compound 101, N-(4-phenylbutyl)-1-phenyl-2-butylamine]
- IC50 [3]: 15.7 nM
- pKi [1, 7]: 8.57
- S1/S2 Ratio ([1]; Table 10, sigma-1/sigma-2): 0.026
- IC50 ratio of sigma-1/sigma-2 (sigma-1 selective compounds) [1, 8]: less than 0.1
- pKi [2, 6]: 6.98

Structure (SMILES): CN1CCN(CC/C=C/c2ccccc2)CC1 [Compound 103, N-(4-phenyl-3(E)-butenyl)-N'-methylpiperazine]
- IC50 [3]: 75.2 nM
- IC50 ratio of sigma-1/sigma-2 (sigma-1 selective compounds) [1]: less than 0.1
- pKi ([1]; SIGMA-1 KI vs. 3H-P[…]): 7.54
- S1/S2 Ratio ([1]; guinea pig, microsomes): 0.011
- pKi [2, 6]: 5.59

Structure (SMILES): CN1CCN(CC/C=C\c2ccccc2)CC1 [Compound 104, N-(4-phenyl-3(Z)-butenyl)-N'-methylpiperazine]
- IC50 [3]: 76.2 nM
- IC50 ratio of sigma-1/sigma-2 (sigma-1 selective compounds) [1]: less than 0.1
- pKi ([1]; SIGMA-1 KI vs. 3H-P[…]): 7.54
- S1/S2 Ratio ([1]; guinea pig, microsomes): 0.022
- pKi [2, 6]: 5.88

Structure (SMILES): CN1CCN(CCCCc2ccccc2)CC1 [Compound 106, N-(4-phenyl)-N'-methylpiperazine]
- IC50 [3]: 49.8 nM
- pKi [1, 7]: 7.71
- S1/S2 Ratio ([1]; Table 10, sigma-1/sigma-2): 0.022
- IC50 ratio of sigma-1/sigma-2 (sigma-1 selective compounds) [1, 8]: less than 0.1
- pKi [2, 6]: 6.05

Structure (SMILES): c1ccc(CCCCCN2CCCCC2)cc1 [Compound 124, N-(5-phenylpentyl)piperidine]
- IC50 [3]: 2.05 nM
- sigma-2/sigma-1 selectivity [1]: 100
- pKi [1, 7]: 9.32
- S1/S2 Ratio ([1]; Table 10, sigma-1/sigma-2): 0.010
- IC50 ratio of sigma-1/sigma-2 (sigma-1 selective compounds) [1, 8]: less than 0.1
- pKi [2, 6]: 7.30

Structure (SMILES): CN(C)CCCCCc1ccccc1 [Compound 125, N,N-Dimethyl-5-phenylpentylamine]
- IC50 [3]: 38.8 nM
- pKi [3, 9]: 7.46
- sigma-2/sigma-1 selectivity [1]: 96
- pKi [1, 7]: 7.98
- S1/S2 Ratio ([1]; Table 10, sigma-1/sigma-2): 0.011
- IC50 ratio of sigma-1/sigma-2 (sigma-1 selective compounds) [1, 8]: less than 0.1
- pKi [2, 6]: 6.02

Structure (SMILES): NCCCCCC1CCCCC1.O=C(O)C(=O)O [Compound 126, 5-Cyclohexylpentylamine Hydrogen Oxalate]
- IC50 [3]: 219 nM
- pKi [3, 9]: 6.70
- sigma-2/sigma-1 selectivity [1]: 13
- pKi [1, 7]: 6.72
- S1/S2 Ratio ([1]; Table 10, sigma-1/sigma-2): 0.075
- pIC50 [1]: 6.72
- IC50 ratio of sigma-1/sigma-2 (sigma-1 selective compounds) [1, 8]: less than 0.1
- pKi [2, 6]: 5.59

Structure (SMILES): CNCCCCCC1CCCCC1 [Compound 127, N-methyl-5-cyclohexylpentylamine]
- IC50 [3]: 10.6 nM
- pKi [3, 9]: 8.00
- sigma-2/sigma-1 selectivity [1]: 51
- pKi [1, 7]: 8.17
- S1/S2 Ratio ([1]; Table 10, sigma-1/sigma-2): 0.020
- pIC50 [1]: 8.17
- IC50 ratio of sigma-1/sigma-2 (sigma-1 selective compounds) [1, 8]: less than 0.1
- pKi [2, 6]: 6.46

Structure (SMILES): CN(CCCCCc1ccccc1)Cc1ccccc1 [Compound 137, N-Benzyl-N-methyl-5-phenylpentylamine]
- IC50 [3]: 1.11 nM
- pKi [2, 6]: 7.90
- IC50 ([2]; Table 18, read-out: IC50 (nM) at sigma-2): 12 nM

Structure (SMILES): COc1ccc2c(c1)[C@]13CCCC[C@@H]1[C@H](C2)N(C)CC3 [Dextromethorphan, reference compound]
- pKi ([1]; SIGMA-1 KI vs. 3H-P[…]): 6.28
- S1/S2 Ratio ([1]; guinea pig, microsomes): 0.035
- pKi [2, 5]: 4.82

Structure (SMILES): CC(C(O)c1ccc(O)cc1)N1CCC(Cc2ccccc2)CC1 (centres unmarked) [Ifenprodil, reference compound]
- pKi [2, 5]: 8.62

Structure (SMILES): OCCN1CCN(CCCN2c3ccccc3Sc3ccc(Cl)cc32)CC1 [Perphenazine, reference compound]
- pKi [1, 4]: 7.60
- S1/S2 Ratio ([1]; Table 11, sigma-1/sigma-2): 0.312
- pKi [2, 5]: 7.10

Structure (SMILES): CC(C)N(CCNC(=O)CN1CCCC1=O)C(C)C [Pramiracetam, reference compound]
- pKi [1, 4]: 5.00
- S1/S2 Ratio ([1]; Table 11, sigma-1/sigma-2): 1.000
- pKi [2, 5]: 5.00

Structure (SMILES): C[C@@H]1CN(CCCn2c3ccccc3c3ccccc32)C[C@H](C)N1 [Rimoazole, reference compound]
- pKi [2, 5]: 6.58

Structure (SMILES): CN1CCN(CCCN2c3ccccc3Sc3ccc(C(F)(F)F)cc32)CC1 [Trifluperizine, reference compound]
- pKi [1, 4]: 6.25
- S1/S2 Ratio ([1]; Table 11, sigma-1/sigma-2): 3.497
- pKi [2, 5]: 6.79
